This note sets out measurements from ChEMBL document CHEMBL5325392, “Development of 3α,7α-dihydroxy-6α-ethyl-24-nor-5β-cholan-23-sulfate sodium salt (INT-767): Process optimization, synthesis and characterization of metabolites” (Eur J Med Chem, 2022).

What is called EC50 is the concentration giving half of the maximal effect.

Structures are written as SMILES.

The target in one test is T1, Bile acid receptor (Homo sapiens, UniProt Q96RI1).
T1 sequence (Q96RI1 whole entry): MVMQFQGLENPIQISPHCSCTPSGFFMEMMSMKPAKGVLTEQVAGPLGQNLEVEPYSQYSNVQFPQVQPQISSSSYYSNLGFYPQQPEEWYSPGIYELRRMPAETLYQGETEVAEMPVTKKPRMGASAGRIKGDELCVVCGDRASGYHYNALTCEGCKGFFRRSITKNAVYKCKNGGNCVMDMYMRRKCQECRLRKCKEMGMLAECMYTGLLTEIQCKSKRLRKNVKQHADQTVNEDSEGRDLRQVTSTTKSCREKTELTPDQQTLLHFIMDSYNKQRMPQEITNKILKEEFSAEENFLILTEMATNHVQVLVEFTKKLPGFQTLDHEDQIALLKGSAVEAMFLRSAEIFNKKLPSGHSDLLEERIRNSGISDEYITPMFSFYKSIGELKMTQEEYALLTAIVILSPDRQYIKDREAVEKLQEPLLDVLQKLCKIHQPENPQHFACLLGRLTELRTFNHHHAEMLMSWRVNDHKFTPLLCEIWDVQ
Description: Agonist activity at glutathione transferase-tagged human FXR ligand binding domain assessed as biotinylated Src1 peptide recruitment incubated for 30 mins by AlphaScreen assay.

The target of test [1] is T2, G-protein coupled bile acid receptor 1 (Homo sapiens, UniProt Q8TDU6).
T2 sequence (Q8TDU6 whole entry): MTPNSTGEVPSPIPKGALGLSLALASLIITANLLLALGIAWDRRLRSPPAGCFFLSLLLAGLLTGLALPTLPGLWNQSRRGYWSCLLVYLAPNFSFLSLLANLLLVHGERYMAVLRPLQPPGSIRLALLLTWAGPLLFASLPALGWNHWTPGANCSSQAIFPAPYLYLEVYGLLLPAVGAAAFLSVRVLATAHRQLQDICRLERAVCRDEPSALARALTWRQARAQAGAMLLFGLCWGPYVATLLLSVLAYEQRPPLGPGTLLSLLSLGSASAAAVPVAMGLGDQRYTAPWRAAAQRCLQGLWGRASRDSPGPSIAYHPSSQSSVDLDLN
Description: Agonist activity at TGR5 receptor in human NCI-H716 cells assessed as activation of intracellular cAMP production incubated for 1 hr by HTR-FRET assay. It is filed as functional, cell-based. Background: Changes in cAMP serve as a functional read-out for many G protein-coupled receptors.

Test [2] addresses T3, Bile acid receptor (Homo sapiens) (UniProt Q96RI1).
T3 sequence (whole entry): T1 sequence (Q96RI1 whole entry)
Put plainly: Agonist activity at glutathione transferase-tagged human FXR ligand binding domain assessed as biotinylated Src1 peptide recruitment incubated for 30 mins by AlphaScreen assay relative to CDCA. The note with it: filed as agonist. Background: Bead proximity is the source of the signal in Alpha formats.

For the compound `CC[C@H]1[C@@H](O)[C@@H]2[C@H](CC[C@]3(C)[C@@H]([C@H](C)CCO)CC[C@@H]23)[C@@]2(C)CC[C@@H](O)C[C@@H]12`, the figures for the EC50 (on Bile acid receptor; in test [1]) were 1.2 µM and 1.1 µM, respectively. Further, in test [2], the Efficacy was 165%.
Consider `CC[C@H]1[C@@H](O)[C@@H]2[C@H](CC[C@]3(C)[C@@H]([C@H](C)CCOS(=O)(=O)O)CC[C@@H]23)[C@@]2(C)CC[C@@H](O[C@@H]3O[C@H](CC(=O)O)[C@@H](O)[C@H](O)[C@H]3O)C[C@@H]12`, for which the figures for the EC50 (at Bile acid receptor; in test [1]) were 5 µM and > 100 µM, respectively. The Efficacy in test [2] amounted to 115%.
For `CC[C@H]1[C@@H](O)[C@@H]2[C@H](CC[C@]3(C)[C@@H]([C@H](C)CCOS(=O)(=O)O)CC[C@@H]23)[C@@]2(C)CCC(=O)C[C@@H]12` the same measures were 0.08 µM, 5 µM and 162%.
Consider `CC[C@H]1[C@@H](O)[C@@H]2[C@H](CC[C@]3(C)[C@@H]([C@H](C)CCOS(=O)(=O)O)CC[C@@H]23)[C@@]2(C)CC[C@@H](OS(=O)(=O)O)C[C@@H]12`, for which the EC50 (on Bile acid receptor; in test [1]) was > 100 µM in each case.
